Where only a bound is given, the exact number is not on record here.

The values below come from ChEMBL document CHEMBL3797054, “Discovery of a series of 8-(2,3-dihydro-1,4-benzoxazin-4-ylmethyl)-2-morpholino-4-oxo-chromene-6-carboxamides as PI3Kβ/δ inhibitors for the treatment of PTEN-deficient tumours” (Bioorg Med Chem Lett, 2016).

One series can be described thus: in vitro. The note with it: human, Caco-2.
Series [1] can be described thus: Intrinsic clearance in human hepatocytes assessed per million cells. The series is classed as ADME, cell-based, Hepatocyte. The note with it: read-out: CLH.
The next series in a line: physchem. The note with it: buffer, pH 7.4.
Series [2] can be described thus: AUC in hairy mouse at 30 umol/kg, po. The series is classed as ADME, organism-based. As to conditions: in vivo.
Series [3] can be described thus: Intrinsic clearance in dog hepatocytes assessed per million cells. The series is classed as ADME, cell-based, Canis lupus familiaris, Hepatocyte.
Series [4] in a line: Oral bioavailability in dog blood at 10 umol/kg. The series is classed as ADME, organism-based, Canis lupus familiaris.
The nature of series [5]: Clearance in hairy mouse blood at 5 umol/kg, iv and 30 umol/kg, po. The series is classed as ADME, organism-based.
Series [6] can be described thus: Oral bioavailability in hairy mouse blood at 30 umol/kg. The series is classed as ADME, organism-based.
Series [7] in a line: Volume of distribution at steady state in hairy mouse blood at 5 umol/kg, iv and 30 umol/kg, po. The series is classed as ADME, organism-based. The note with it: read-out: Vdss.
A further series relates to Hepatocyte. The experiment in a line: Intrinsic clearance in mouse hepatocytes assessed per million cells. The series is classed as ADME, cell-based.
Series [8] can be described thus: Clearance in dog blood at 4 umol/kg, iv and 10 umol/kg, po. The series is classed as ADME, organism-based, Canis lupus familiaris.
Series [9] is described as follows: Volume of distribution at steady state in dog blood at 4 umol/kg, iv and 10 umol/kg, po. The series is classed as ADME, organism-based, Canis lupus familiaris. As to conditions: read-out: Vdss.

Regarding `CN(C)C(=O)c1cc(CN2CCOc3c(F)cc(F)cc32)c2oc(N3CCOCC3)cc(=O)c2c1`, the Papp A→B (as a rule, the apparent permeability from the apical to the basolateral side of a cell layer) at 2 h, 10 µM in “in vitro” came to 9 ×10⁻⁶ cm/s. For the same compound, in series [1], the hepatocyte CLint was 7 µL/min/1e6 cells. Moreover, in “physchem”, the log distribution coefficient (logD) (in general, the decadic logarithm of the distribution of all forms, ionised or not, between an organic phase and buffer at a given pH) worked out at 2.1. Besides, in [2], the exposure (AUC) (as a rule, the area under the concentration-time curve, a measure of exposure) is 4.4 µM·h.

With `C[C@@H]1CN(c2cc(=O)c3cc(C(=O)N4CCOCC4)cc(CN4CCOc5c(F)cccc54)c3o2)CCO1`, in series [1], the hepatocyte CLint was under 3 µL/min/1e6 cells. The compound further yielded an area under the curve (AUC) in series [2] of 1 µM·h.

`C[C@@H]1CN(c2cc(=O)c3cc(C(=O)N(C)C)cc(CN(C)c4cc(F)cc(F)c4)c3o2)CCO1` returned a Papp A→B at 2 h, 10 µM in “in vitro” of 55 ×10⁻⁶ cm/s. For the same compound, the hepatocyte CLint in series [1] turned out to be 5 µL/min/1e6 cells. Also, in “physchem”, the logD amounted to 2.7. This compound displayed an AUC in series [2] of 15.3 µM·h.

For `CN(C)C(=O)c1cc(CN2CCOc3c(F)cccc32)c2oc(N3CCOCC3)cc(=O)c2c1`, the hepatocyte CLint in [3] was 4 µL/min/1e6 cells; in series [1] it was under 1 µL/min/1e6 cells; with Hepatocyte, 21 µL/min/1e6 cells. For the same compound, the bioavailability (as a rule, the share of a dose that reaches the circulation, judged against a reference dose that is usually intravenous) is 63% in series [4] and 47% in [6]. Moreover, in the series “in vitro”, the Papp A→B at 2 h, 10 µM came to 6.5 ×10⁻⁶ cm/s. Also, the clearance in series [5] turned out to be 49 mL/min/kg; in series [8], 13 mL/min/kg. Also, the Vd in [7] is 1.9 L/kg; in [9] it was 1.6 L/kg. For the same compound, the logD in the series “physchem” is 1.7. This compound returned an area under the curve (AUC) in series [2] of 3.9 µM·h.

On to `C[C@@H]1CN(c2cc(=O)c3cc(C(=O)N4CCOCC4)cc(CN4CCOc5c(F)cc(F)cc54)c3o2)CCO1`, for which, in series [1], the hepatocyte CLint was under 3 µL/min/1e6 cells.

In “in vitro”, `COCCN(Cc1cc(C(=O)N(C)C)cc2c(=O)cc(N3CCO[C@H](C)C3)oc12)c1cc(F)cc(F)c1` displayed a Papp A→B at 2 h, 10 µM of 14 ×10⁻⁶ cm/s. Also, in series [1], the hepatocyte CLint amounted to 14 µL/min/1e6 cells. In addition, the logD in “physchem” turned out to be 2.2.

In the series “in vitro”, `COCCN(Cc1cc(C(=O)N(C)C)cc2c(=O)cc(N3CCOCC3)oc12)c1cc(F)cc(F)c1` came in with a Papp A→B at 2 h, 10 µM of 11 ×10⁻⁶ cm/s. The hepatocyte CLint in [1] worked out at 8 µL/min/1e6 cells. In “physchem”, the pH-dependent lipophilicity (logD) is 2.1. The same compound had an AUC in series [2] of 2.4 µM·h.

For the compound `CN(C)C(=O)c1cc(CN2CCOc3ccc(F)cc32)c2oc(N3CCOCC3)cc(=O)c2c1`, in [1], the hepatocyte CLint was determined as 12 µL/min/1e6 cells. Further, the logD in “physchem” turned out to be 1.9.

For `CN(C)C(=O)c1cc(CN(CCC#N)c2cc(F)cc(F)c2)c2oc(N3CCOCC3)cc(=O)c2c1`, in series [1], the hepatocyte CLint was under 3 µL/min/1e6 cells. The compound also had a log distribution coefficient (logD) in the series “physchem” of 1.8.

In the case of `CN(C)C(=O)c1cc(CN(C)c2cc(F)cc(F)c2)c2oc(N3CCOCC3)cc(=O)c2c1`, the hepatocyte CLint in series [1] was under 5 µL/min/1e6 cells. Also, the AUC in series [2] worked out at 4.9 µM·h.

As for `C[C@@H]1CN(c2cc(=O)c3cc(C(=O)N(C)C)cc(CN4CCOc5c(F)cccc54)c3o2)CCO1`, the apical-to-basolateral permeability (Papp A→B) at 2 h, 10 µM in “in vitro” was 28 ×10⁻⁶ cm/s. Also, in series [1], the hepatocyte CLint is under 3 µL/min/1e6 cells. Also, the pH-dependent lipophilicity (logD) in the series “physchem” amounted to 2. Besides, the area under the curve (AUC) in series [2] worked out at 7.3 µM·h.

Consider `CN(C)C(=O)c1cc(CN(CC#N)c2cc(F)cc(F)c2)c2oc(N3CCOCC3)cc(=O)c2c1`, for which the hepatocyte CLint in [1] was under 3 µL/min/1e6 cells. The same compound yielded a logD in “physchem” of 1.5.

On to `C[C@@H]1CN(c2cc(=O)c3cc(C(=O)N(C)C)cc(CN4CCOc5ccc(F)cc54)c3o2)CCO1`, for which the hepatocyte CLint in series [1] is 15 µL/min/1e6 cells. Also, the log distribution coefficient (logD) in the series “physchem” turned out to be 2.3.

`C[C@@H]1CN(c2cc(=O)c3cc(C(=O)N(C)C)cc(CN4CCOc5c(F)cc(F)cc54)c3o2)CCO1`: the Papp A→B at 2 h, 10 µM in the series “in vitro” came out at 25 ×10⁻⁶ cm/s. The hepatocyte CLint in [1] came to 8 µL/min/1e6 cells. In “physchem”, the logD came to 2.3.

In turn, `C[C@@H]1CN(c2cc(=O)c3cc(C(=O)N4CCOCC4)cc(CN4CCOc5ccc(F)cc54)c3o2)CCO1` yielded a Papp A→B at 2 h, 10 µM in “in vitro” of 11 ×10⁻⁶ cm/s. Besides, the hepatocyte CLint in [1] was determined as 4 µL/min/1e6 cells. The compound also returned a logD in the series “physchem” of 2. This compound also yielded an AUC in series [2] of 2.8 µM·h.

For the compound `CC(c1cc(C(=O)N(C)C)cc2c(=O)cc(N3CCOCC3)oc12)N1CCOc2c(F)cc(F)cc21` (configuration not stated), the logD in “physchem” was determined as 2.
